Results: patent US7803816B2, “MCH receptor antagonists” (Hoffmann-La Roche Inc., priority 2005, dated 2010)

Each compound was assayed against T1, recombinant human MCHR1-receptors (Homo sapiens, UniProt Q99705) (assay: MCHR filter binding assay (competition binding)). Details: membranes from CHO-K1 cells expressing human MCHR1; 0.2 nM [Phe13,[125I]Tyr19]-MCH; read-out: IC50 (nM), in vitro activity (binding assay).
T1 construct: expressed in transfected cells
T1 sequence (Q99705 whole entry): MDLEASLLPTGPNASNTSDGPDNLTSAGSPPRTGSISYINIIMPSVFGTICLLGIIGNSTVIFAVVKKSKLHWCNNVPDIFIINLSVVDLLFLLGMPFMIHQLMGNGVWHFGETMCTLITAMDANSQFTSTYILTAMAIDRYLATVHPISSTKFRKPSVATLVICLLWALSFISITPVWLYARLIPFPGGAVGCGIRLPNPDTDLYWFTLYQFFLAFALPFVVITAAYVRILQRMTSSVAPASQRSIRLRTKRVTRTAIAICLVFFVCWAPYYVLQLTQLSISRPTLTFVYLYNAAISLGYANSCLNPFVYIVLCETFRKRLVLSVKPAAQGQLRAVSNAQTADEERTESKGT
In short: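 Membranes from CHO-K1 cells stably expressing human MCHR1 (2.8 μg) preincubated 15 min with competitor, then 1 h at rt with 0.2 nM [Phe13,[125I]Tyr19]-MCH in HEPES/CaCl2/BSA/phenanthroline/Triton buffer. Bound radioactivity counted after rapid filtration over PVP/BSA-treated GF/B filters.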
Compound CO[C@@H]1CN(C[C@H]2Cc3ccc(Cl)cc3C2)CC[C@H]1n1c(C(C)(C)O)nc2cc(C)ccc21 [Example 112, 2-{1-[(3R,4R)-1-((S)-5-Chloro-indan-2-ylmethyl)-3-methoxy-piperidin-4-yl]-5-methyl-1H-benzoimidazol-2-yl}-propan-2-ol] has an IC50 of 20 to 200 nM.
Work on CS(=O)(=O)c1ccc2c(c1)nc(C(F)(F)F)n2C1CCN(C[C@H]2Cc3ccc(Br)cc3C2)CC1 [Example 121, 1-[1-((S)-5-Bromo-indan-2-ylmethyl)-piperidin-4-yl]-5-methanesulfonyl-2-trifluoromethyl-1H-benzoimidazole] yielded an IC50 of 20 to 200 nM.
In the case of CCC(=O)Nc1ccc2c(c1)CC(CN1CC[C@@H](n3c(C)nc4cc(C)ccc43)[C@H](O)C1)C2 (stereo in doubt) [Example 5, N-{(S)-2-[(3R,4R)-4-(2,5-Dimethyl-benzoimidazol-1-yl)-3-hydroxy-piperidin-1-ylmethyl]-indan-5-yl}-propionamide], the IC50 is reported as 20 to 200 nM.
In the case of CO[C@H]1CN(C[C@H]2Cc3ccc(Br)cc3C2)CC[C@@H]1n1c(C(C)C)nc2cc(C)ccc21 [Example 17, 1-[(3S,4S)-1-((S)-5-Bromo-indan-2-ylmethyl)-3-methoxy-piperidin-4-yl]-2-isopropyl-5-methyl-1H-benzoimidazole], the IC50 is reported as 20 to 200 nM.
